Like-named read-outs stand apart in the source and are kept apart here. Where a SMILES comes first, the peptide text is derived from it.
Experiments:
[1] = target: H1/Nca HA (biotinylated full length trimeric HA, A/New Caledonia/20/1999) (Influenza A virus, UniProt Q6WG00); assay: AlphaLISA competition assay with HB80.4, H1/NCa HA; assay type: binding, influenza A virus H1N1 A/New Caledonia/20/1999
Source text: (§1) Binding competition studies were designed to test compounds of the invention for competition with other well characterized HA binding proteins (such as e.g. CR9114, CR6261 and HB80.4) with known epitopes on HA. The epitopes where either located at the stem of the HA (viral membrane proximal part of HA) or, for control purposes, at the head of HA (viral membrane distal part of HA). If competition was observed, it was assumed that both molecules bind to a similar or at least overlapping epitope at the surface of HA. Competition with a HA head- and stem-binder was interpreted as unspecific binding.
(§2) Hereto an AlphaLISA competition assay (Perkin Elmer) was established which relied on biotinylated full length and trimeric HA proteins (Protein Sciences, 10 μL, 0.5 nM final concentration in 50 μL) bound by HA-specific binders. The interaction between HA and the binder was detected after 1 h incubation at room temperature (RT) with two beads, a streptavidin donor bead recognizing HA (10 μL of 10 μg/mL) and an anti Fc bead (10 μg/mL) recognizing the IgGs used. If after an additional hour of incubation at RT the excited donor bead (680 nm) and acceptor bead are in close proximity, an energy transfer (singlet oxygen) can be measured as a luminescence signal of the acceptor bead (Perkin Elmer EnVision plate reader). The signal intensity in this homogeneous assay format is directly proportional to the binding strength (affinity/avidity) between both binding partners.

[2] = target: H1/Cal HA (biotinylated full length trimeric HA, A/California/07/2009) (Influenza A virus, UniProt C3W5X2); assay: AlphaLISA competition assay with HB80.4, H1/Cal HA; assay type: binding, influenza A virus H1N1 A/California/07/2009
Source text: as §1, §2

[3] = system: influenza virus A/New Caledonia (H1); assay: Virus neutralization assay (VNA) on Calu-3 cells; assay type: cell-based, influenza A virus H1N1 A/New Caledonia/20/1999
[4] = ALC_H1_NCa_HB80.4 calculated pIC50, AlphaLISA competition with HB80.4 on H1 NCa HA, 0.5 nM HA

Row | Compound | IC50 [1, 4] | IC50 [2] | VNA_H1_NCa_Calu3 pIC50 [3] | IC50 [1] | VNA_H1_NCa_Calu3 pIC50 ([3]; Calu-3 cells, 5 TCID50/50 μL virus, 4 days, NP ELISA readout) | IC50 ([1]; IC50 in the alphalisa assay, best compound, strain not stated in text (matches pIC50 7.9 on H1 NCa))
1 | CSCC[C@H](NC(=O)[C@H](CCC(=O)O)NC(=O)CNC(=O)[C@H](C)NC(=O)[C@@H](NC(=O)CNC(=O)[C@H](CC(C)C)NC(=O)[C@@H]1CCCN1C(=O)[C@H](CC(=O)O)NC(=O)[C@H](CCCNC(=N)N)NC(=O)[C@H](Cc1ccc(O)cc1)NC(=O)[C@H](CC(C)C)NC(=O)[C@H](CO)NC(=O)[C@@H](NC(=O)CCC(=O)O)C(C)C)C(C)C)C(=O)NCC(=O)N[C@H](C(=O)N[C@@H](Cc1ccc(O)cc1)C(N)=O)C(C)C [CP141075, Suc-Val-Ser-Leu-Tyr-Arg-Asp-Pro-Leu-Gly-Val-Ala-Gly-Glu-Met-Gly-Val-Tyr-NH2] (HELM PEPTIDE1{[O=C(O)CCC(=O)[*:2]].V.S.L.Y.R.D.P.L.G.V.A.G.E.M.G.V.Y.[am]}$$$$V2.0) | 50.1 µM | 10 µM |  |  |  | 
2 | CSCC[C@@H]1NC(=O)CNC(=O)CNC(=O)[C@H](C)NC(=O)[C@H](C(C)C)NC(=O)CNC(=O)[C@H](CC(C)C)NC(=O)[C@@H]2CCCN2C(=O)[C@H](CC(=O)O)NC(=O)[C@H](CCC(=O)O)NC(=O)[C@H](Cc2ccc(O)cc2)NC(=O)[C@H](CC(C)C)NC(=O)[C@H](CO)NC(=O)[C@H]2CCCN2C(=O)[C@@H]2CCCN2C(=O)[C@H](C(C)C)NC(=O)CNC1=O [CP141091, D-Pro-Ser-Leu-Tyr-Glu-Asp-Pro-Leu-Gly-Val-Ala-Gly-Gly-Met-Gly-Val-Pro] |  | 5.01 µM | 4.2 | 6.31 µM |  | 
3 | CSCC[C@@H]1NC(=O)CNC(=O)CNC(=O)[C@H](C)NC(=O)[C@H](C(C)C)NC(=O)CNC(=O)[C@H](CC(C)C)NC(=O)[C@@H]2CCCN2C(=O)[C@H](CC(=O)O)NC(=O)[C@H](CCC(=O)O)NC(=O)[C@H](Cc2ccc(O)cc2)NC(=O)[C@H](CC(C)C)NC(=O)[C@H](CO)NC(=O)[C@H](C(C)C)NC(=O)[C@@H]2CCCN2C(=O)[C@H]2CCCN2C(=O)[C@H](Cc2ccc(O)cc2)NC(=O)[C@H](C(C)C)NC(=O)CNC1=O [CP141085, Pro-Val-Ser-Leu-Tyr-Glu-Asp-Pro-Leu-Gly-Val-Ala-Gly-Gly-Met-Gly-Val-Tyr-D-Pro] | 0.0126 µM | 0.0158 µM |  |  | 5.9 | 0.013 µM
4 | CC[C@H](NC(=O)[C@@H](NC(=O)CNC(=O)[C@H](CCCc1ccccc1)NC(=O)[C@@H]1CCCN1C(=O)[C@H](CC(=O)O)NC(=O)[C@H](CCCNC(=N)N)NC(=O)[C@H](Cc1ccc(O)cc1)NC(=O)[C@H](CC(C)C)NC(=O)[C@H](CO)NC(=O)[C@@H](NC(=O)CCC(=O)O)C(C)C)C(C)C)C(=O)NCC(=O)N[C@@H](CCC(=O)O)C(=O)N[C@@H](CCSC)C(=O)NCC(=O)N[C@H](C(=O)N[C@@H](Cc1ccc(O)cc1)C(N)=O)C(C)C [CP141090, Suc-Val-Ser-Leu-Tyr-Arg-Asp-Pro-Ph5-Gly-Val-Abu-Gly-Glu-Met-Gly-Val-Tyr-NH2] (HELM PEPTIDE1{[O=C(O)CCC(=O)[*:2]].V.S.L.Y.R.D.P.[O=C([C@H](CCCc1ccccc1)N[*:1])[*:2]].G.V.[Abu].G.E.M.G.V.Y.[am]}$$$$V2.0) |  | 10 µM |  | 15.8 µM |  | 
5 | CSCC[C@H](NC(=O)CNC(=O)CNC(=O)[C@H](C)NC(=O)[C@@H](NC(=O)CNC(=O)[C@H](CC(C)C)NC(=O)[C@@H]1CCCN1C(=O)[C@H](CC(=O)O)NC(=O)[C@H](CCC(=O)O)NC(=O)[C@H](Cc1ccc(O)cc1)NC(=O)[C@H](CC(C)C)NC(=O)[C@H](CO)NC(=O)[C@@H](NC(=O)CCC(=O)O)C(C)C)C(C)C)C(=O)NCC(=O)N[C@H](C(=O)N[C@@H](Cc1ccc(O)cc1)C(N)=O)C(C)C [CP141074, Suc-Val-Ser-Leu-Tyr-Glu-Asp-Pro-Leu-Gly-Val-Ala-Gly-Gly-Met-Gly-Val-Tyr-NH2] | 5.01 µM | 3.98 µM |  |  |  | 
6 | CSCC[C@@H]1NC(=O)CNC(=O)CNC(=O)[C@H](C)NC(=O)[C@H](C(C)C)NC(=O)CNC(=O)[C@H](CC(C)C)NC(=O)[C@@H]2CCCN2C(=O)[C@H](CC(=O)O)NC(=O)[C@H](CCC(=O)O)NC(=O)[C@H](Cc2ccc(O)cc2)NC(=O)[C@H](CC(C)C)NC(=O)[C@H](CO)NC(=O)[C@H]2CCCN2C(=O)CNC(=O)[C@H](C(C)C)NC(=O)CNC1=O [CP141083, D-Pro-Ser-Leu-Tyr-Glu-Asp-Pro-Leu-Gly-Val-Ala-Gly-Gly-Met-Gly-Val-Gly] |  | 5.01 µM |  | 10 µM |  | 
7 | CC[C@@H]1NC(=O)[C@H](C(C)C)NC(=O)CNC(=O)[C@H](CCCc2ccccc2)NC(=O)[C@@H]2CCCN2C(=O)[C@H](CC(=O)O)NC(=O)[C@H](CCC(=O)O)NC(=O)[C@H](Cc2ccc(O)cc2)NC(=O)[C@H](CC(C)C)NC(=O)CNC(=O)[C@H]2CCCN2C(=O)CNC(=O)[C@H](CCSC)NC(=O)CNC(=O)CNC1=O [CP141092, Gly-Leu-Tyr-Glu-Asp-Pro-Ph5-Gly-Val-Abu-Gly-Gly-Met-Gly-D-Pro] (HELM PEPTIDE1{[Abu].G.G.M.G.[dP].G.L.Y.E.D.P.[O=C([C@H](CCCc1ccccc1)N[*:1])[*:2]].G.V}$PEPTIDE1,PEPTIDE1,1:R1-15:R2$$$V2.0) |  | 0.398 µM |  | 0.251 µM |  | 
8 | CSCC[C@@H]1NC(=O)[C@H](CCC(=O)O)NC(=O)CNC(=O)[C@H](C)NC(=O)[C@H](C(C)C)NC(=O)CNC(=O)[C@H](CC(C)C)NC(=O)[C@@H]2CCCN2C(=O)[C@H](CC(=O)O)NC(=O)[C@H](CCCNC(=N)N)NC(=O)[C@H](Cc2ccc(O)cc2)NC(=O)[C@H](CC(C)C)NC(=O)[C@@H](NC(=O)CCC(=O)O)CSSC[C@@H](C(N)=O)NC(=O)CNC1=O [CP141071, Suc-Cys-Leu-Tyr-Arg-Asp-Pro-Leu-Gly-Val-Ala-Gly-Glu-Met-Gly-Cys-NH2] (HELM PEPTIDE1{[O=C(O)CCC(=O)[*:2]].C.L.Y.R.D.P.L.G.V.A.G.E.M.G.C.[am]}$PEPTIDE1,PEPTIDE1,2:R3-16:R3$$$V2.0) | 2 µM | 0.501 µM |  |  |  | 
9 | CSCC[C@H](NC(=O)CNC(=O)CNC(=O)[C@H](C)NC(=O)[C@@H](NC(=O)CNC(=O)[C@H](CC(C)C)NC(=O)[C@@H]1CCCN1C(=O)[C@H](CC(=O)O)NC(=O)[C@H](CCCNC(=N)N)NC(=O)[C@H](Cc1ccc(O)cc1)NC(=O)[C@H](CC(C)C)NC(=O)[C@H](CO)NC(=O)[C@@H](NC(=O)CCC(=O)O)C(C)C)C(C)C)C(=O)NCC(=O)N[C@H](C(=O)N[C@@H](Cc1ccc(O)cc1)C(N)=O)C(C)C [CP141073, Suc-Val-Ser-Leu-Tyr-Arg-Asp-Pro-Leu-Gly-Val-Ala-Gly-Gly-Met-Gly-Val-Tyr-NH2] | 6.31 µM | 2 µM |  |  |  | 
10 | CCCC[C@H](NC(=O)CNC(=O)CNC(=O)[C@H](C)NC(=O)[C@@H](NC(=O)CNC(=O)[C@H](CC(C)C)NC(=O)[C@@H]1CCCN1C(=O)[C@H](CC(=O)O)NC(=O)[C@H](CCCNC(=N)N)NC(=O)[C@H](Cc1ccc(O)cc1)NC(=O)[C@H](CC(C)C)NC(=O)[C@H](CO)NC(=O)[C@@H](NC(=O)CCC(=O)O)C(C)C)C(C)C)C(=O)NCC(=O)N[C@H](C(=O)N[C@@H](Cc1ccc(O)cc1)C(N)=O)C(C)C [CP141081, Suc-Val-Ser-Leu-Tyr-Arg-Asp-Pro-Leu-Gly-Val-Ala-Gly-Gly-Nlu-Gly-Val-Tyr-NH2] |  | 3.16 µM |  | 7.94 µM |  | 
11 | CCCC[C@@H]1NC(=O)[C@H](CCC(=O)O)NC(=O)CNC(=O)[C@H](C)NC(=O)[C@H](C(C)C)NC(=O)CNC(=O)[C@H](CC(C)C)NC(=O)[C@@H]2CCCN2C(=O)[C@H](CC(=O)O)NC(=O)[C@H](CCCNC(=N)N)NC(=O)[C@H](Cc2ccc(O)cc2)NC(=O)[C@@H](NC(=O)CCC(=O)O)CSSC[C@@H](C(N)=O)NC1=O [CP141089, Suc-Cys-Tyr-Arg-Asp-Pro-Leu-Gly-Val-Ala-Gly-Glu-Nlu-Cys-NH2] |  | 25.1 µM |  | 50.1 µM |  | 
12 | CC[C@@H]1NC(=O)[C@H](C(C)C)NC(=O)CNC(=O)[C@H](CCCc2ccccc2)NC(=O)[C@@H]2CCCN2C(=O)[C@H](CC(=O)O)NC(=O)[C@H](CCCNC(=N)N)NC(=O)[C@H](Cc2ccc(O)cc2)NC(=O)[C@@H](NC(=O)CCC(=O)O)CSSC[C@@H](C(N)=O)NC(=O)[C@H](CCSC)NC(=O)[C@H](CCC(=O)O)NC(=O)CNC1=O [CP141093, Suc-Cys-Tyr-Arg-Asp-Pro-Ph5-Gly-Val-Abu-Gly-Glu-Met-Cys-NH2] (HELM PEPTIDE1{[O=C(O)CCC(=O)[*:2]].C.Y.R.D.P.[O=C([C@H](CCCc1ccccc1)N[*:1])[*:2]].G.V.[Abu].G.E.M.C.[am]}$PEPTIDE1,PEPTIDE1,2:R3-14:R3$$$V2.0) |  | 10 µM |  | 20 µM |  | 
13 | CSCC[C@@H]1NC(=O)[C@H](CCC(=O)O)NC(=O)CNC(=O)[C@H](C)NC(=O)[C@H](C(C)C)NC(=O)CNC(=O)[C@H](CC(C)C)NC(=O)[C@@H]2CCCN2C(=O)[C@H](CC(=O)O)NC(=O)[C@H](CCCNC(=N)N)NC(=O)[C@H](Cc2ccc(O)cc2)NC(=O)[C@@H](NC(=O)CCC(=O)O)CSSC[C@@H](C(N)=O)NC1=O [CP141072, Suc-Cys-Tyr-Arg-Asp-Pro-Leu-Gly-Val-Ala-Gly-Glu-Met-Cys-NH2] |  | 15.8 µM |  | 12.6 µM |  | 

From US20200048308A1, “INFLUENZA VIRUS NE[…]” (priority 2016, published 2020)
